Data from patent US7220758B2, “Ether substituted imidazopyridines” (3M Innovative Properties Company, priority 2002, dated 2007).

Row | melting point [°C] | SMILES
1 | 157 to 159 | CCc1nc2c(N)nc(C)c(C)c2n1CCOCCN1CCCS1(=O)=O [Example 106, 1-{2-[2-(1,1-Dioxidoisothiazolidin-2-yl)ethoxy]ethyl}-2-ethyl-6,7-dimethyl-1H-imidazo[4,5-c]pyridin-4-amine]
2 | 185 to 187 | CCc1nc2c(N)nc(C)c(C)c2n1CCOCCNC(=O)NC(=O)c1ccccc1 [Example 107, N-{2-[2-(4-Amino-2-ethyl-6,7-dimethyl-1H-imidazo[4,5-c]pyridin-1-yl)ethoxy]ethyl}-N′-benzoylurea]
3 | 201 to 203 | CCc1nc2c(N)nc(C)c(C)c2n1CCOCCNC(=O)NS(=O)(=O)c1ccccc1 [Example 108, N-[({2-[2-(4-Amino-2-ethyl-6,7-dimethyl-1H-imidazo[4,5-c]pyridin-1-yl)ethoxy]ethyl}amino)carbonyl]benzenesulfonamide]
4 | 143 to 145 | CCOCc1nc2c(N)nc(C)c(C)c2n1CCOCc1ccncc1 [Example 109, 2-(Ethoxymethyl)-6,7-dimethyl-1-[2-(pyridin-4-ylmethoxy)ethyl]-1II-imidazo[4,5-c]pyridin-4-amine]
5 | 208 to 210 | Cc1nc(N)c2nc(C)n(CCOCc3ccncc3)c2c1C [Example 110, 2,6,7-Trimethyl-1-[2-(pyridin-4-ylmethoxy)ethyl]-1H-imidazo[4,5-c]pyridin-4-amine]
6 | 122 to 124 | CCOCc1nc2c(N)nc(C)c(C)c2n1CCOCC#Cc1cncnc1 [Example 111, 2-(Ethoxymethyl)-6,7-dimethyl-1-{2-[(3-pyrimidin-5-ylprop-2-ynyl)oxy]ethyl}-1H-imidazo[4,5-c]pyridin-4-amine]
7 | 127 to 129 | CCOCc1nc2c(N)nc(C)c(C)c2n1CCOCCCc1cncnc1 [Example 112, 2-(Ethoxymethyl)-6,7-dimethyl-1-[2-(3-pyrimidin-5-ylpropoxy)ethyl]-1H-imidazo[4,5-c]pyridin-4-amine]
8 | 129 to 131 | CCCc1nc2c(N)ncc(Br)c2n1CCOCCNS(C)(=O)=O [Example 113, N-{2-[2-(4-Amino-7-bromo-2-propyl-1H-imidazo[4,5-c]pyridin-1-yl)ethoxy]ethyl}methanesulfonamide]
9 | 114 to 117 | CCCc1nc2c(N)ncc(Br)c2n1CCOCCN [Example 114, 1-[2-(2-Aminoethoxy)ethyl]-7-bromo-2-propyl-1H-imidazo[4,5-c]pyridin-4-amine]
10 | 147 to 149 | CCCCNC(=O)c1ccc(S(=O)(=O)CCCn2c(CCC)nc3c(N)nc(C)c(C)c32)cc1 [Example 119, 4-[3-(4-Amino-6,7-dimethyl-2-propyl-1H-imidazo[4,5-c]pyridin-1-yl)propane-1-sulfonyl]-N-butylbenzamide]
11 | 127 to 129 | CCCCN(C)C(=O)c1ccc(S(=O)(=O)CCCn2c(CCC)nc3c(N)nc(C)c(C)c32)cc1 [Example 120, 4-[3-(4-Amino-6,7-dimethyl-2-propyl-1H-imidazo[4,5-c]pyridin-1-yl)propane-1-sulfonyl]-N-butyl-N-methylbenzamide]
12 | 158 to 161 | CCCc1nc2c(N)nc(Cl)c(C)c2n1CCOCCN [Example 121, 1-[2-(2-Aminoethoxy)ethyl]-6-chloro-7-methyl-2-propyl-1H-imidazo[4,5-c]pyridin-4-amine]
13 | 129 to 130 | CCOCc1nc2c(N)nc(C)c(C)c2n1CCOCC#Cc1ccccc1 [Example 122, 2-Ethoxymethyl-6,7-dimethyl-1-{2-[(3-phenylprop-2-ynyl)oxy]ethyl}-1H-imidazo[4,5-c]pyridin-4-amine]
14 | 128 to 130 | CCc1nc2c(N)nc(C)c(C)c2n1CCOCCN1CCCC1=O [Example 124, 1-{2-[2-(4-Amino-2-ethyl-6,7-dimethyl-1H-imidazo[4,5-c]pyridin-1-yl)ethoxy]ethyl}pyrrolindin-2-one]
15 | 188 to 189 | CCCc1nc2c(N)nc(Cl)c(C)c2n1CCOCCNC(=O)c1ccccc1 [Example 125, N-{2-[2-(4-Amino-6-chloro-7-methyl-2-propyl-1H-imidazo[4,5-c]pyridin-4-yl)ethoxy]ethyl}benzamide]
